Source: US9682995B2, “Amino-substituted isothiazoles” (BAYER PHARMA AKTIENGESELLSCHAFT, priority 2013, dated 2017)

Columns and labels:
Test in all cases: Kinase Profiling (KINOMEscan)
Type in all cases: binding
[1] = molecular target: 456 kinases (of these 395 non-mutant kinases) (Homo sapiens, UniProt Q16566); details: CAMK4; 10 μM
[2] = molecular target: 456 kinases (of these 395 non-mutant kinases) (Homo sapiens, UniProt Q9BXA7); details: TSSK1B; 10 μM
[3] = molecular target: 456 kinases (of these 395 non-mutant kinases) (Homo sapiens, UniProt P00519, T315I); details: 10 μM
[4] = molecular target: 456 kinases (of these 395 non-mutant kinases) (Homo sapiens, UniProt P36507); details: MEK2; 10 μM
[5] = molecular target: 456 kinases (of these 395 non-mutant kinases) (Homo sapiens, UniProt Q9UQB9); details: AURKC; 10 μM
[6] = molecular target: 456 kinases (of these 395 non-mutant kinases) (Homo sapiens, UniProt Q92630); details: DYRK2; 10 μM
[7] = molecular target: 456 kinases (of these 395 non-mutant kinases) (Homo sapiens, UniProt P00519, F317I); details: 10 μM
[8] = molecular target: 456 kinases (of these 395 non-mutant kinases) (Homo sapiens, UniProt P08069); details: IGF1R; 10 μM
[9] = molecular target: 456 kinases (of these 395 non-mutant kinases) (Homo sapiens, UniProt P08922); details: ROS1; 10 μM
[10] = molecular target: 456 kinases (of these 395 non-mutant kinases) (Homo sapiens, UniProt P29322); details: EPHA8; 10 μM
[11] = molecular target: 456 kinases (of these 395 non-mutant kinases) (Homo sapiens, UniProt P51617); details: IRAKI; 10 μM
[12] = molecular target: 456 kinases (of these 395 non-mutant kinases) (Homo sapiens, UniProt P00533, L858R/T790M); details: EGFR(L858R,T790M); 10 μM
[13] = molecular target: 456 kinases (of these 395 non-mutant kinases) (Homo sapiens, UniProt P27037); details: ACVR2A; 10 μM
[14] = molecular target: 456 kinases (of these 395 non-mutant kinases) (Homo sapiens, UniProt Q9UKI8); details: TLK1; 10 μM
[15] = molecular target: 456 kinases (of these 395 non-mutant kinases) (Homo sapiens, UniProt Q16512); details: PKN1; 10 μM
[16] = molecular target: 456 kinases (of these 395 non-mutant kinases) (Homo sapiens, UniProt P00533, L861Q); details: EGFR(L861Q); 10 μM
[17] = molecular target: 456 kinases (of these 395 non-mutant kinases) (Homo sapiens, UniProt Q99755); details: PIP5K1A; 10 μM
[18] = molecular target: 456 kinases (of these 395 non-mutant kinases) (Homo sapiens, UniProt Q7KZI7); details: MARK2; 10 μM
[19] = molecular target: 456 kinases (of these 395 non-mutant kinases) (Homo sapiens, UniProt Q8IVW4); details: CDKL3; 10 μM
[20] = molecular target: 456 kinases (of these 395 non-mutant kinases) (Homo sapiens, UniProt P27361); details: ERK1; 10 μM
[21] = molecular target: 456 kinases (of these 395 non-mutant kinases) (Homo sapiens, UniProt P21860); details: ERBB3; 10 μM
[22] = molecular target: 456 kinases (of these 395 non-mutant kinases) (Homo sapiens, UniProt P09769); details: FGR; 10 μM
[23] = molecular target: 456 kinases (of these 395 non-mutant kinases) (Homo sapiens, UniProt P06241); details: FYN; 10 μM
[24] = molecular target: 456 kinases (of these 395 non-mutant kinases) (Homo sapiens, UniProt Q9H2K8); details: TAOK3; 10 μM
[25] = molecular target: 456 kinases (of these 395 non-mutant kinases) (Homo sapiens, UniProt P04049); details: RAF1; 10 μM
[26] = molecular target: 456 kinases (of these 395 non-mutant kinases) (Homo sapiens, UniProt P53350); details: PLK1; 10 μM
[27] = molecular target: 456 kinases (of these 395 non-mutant kinases) (Homo sapiens, UniProt P53667); details: LIMK1; 10 μM
[28] = molecular target: 456 kinases (of these 395 non-mutant kinases) (Homo sapiens, UniProt P31749); details: AKT1; 10 μM
[29] = molecular target: 456 kinases (of these 395 non-mutant kinases) (Homo sapiens, UniProt P45985); details: MEK4; 10 μM
[30] = molecular target: 456 kinases (of these 395 non-mutant kinases) (Homo sapiens, UniProt P42336, Q546K); details: PIK3CA(Q546K); 10 μM
[31] = molecular target: 456 kinases (of these 395 non-mutant kinases) (Homo sapiens, UniProt P42681); details: TXK; 10 μM

456 kinases (of these 395 non-mutant kinases) (Homo sapiens, UniProt P27361), sequence (P27361 2-379 limits assumed, change not shown): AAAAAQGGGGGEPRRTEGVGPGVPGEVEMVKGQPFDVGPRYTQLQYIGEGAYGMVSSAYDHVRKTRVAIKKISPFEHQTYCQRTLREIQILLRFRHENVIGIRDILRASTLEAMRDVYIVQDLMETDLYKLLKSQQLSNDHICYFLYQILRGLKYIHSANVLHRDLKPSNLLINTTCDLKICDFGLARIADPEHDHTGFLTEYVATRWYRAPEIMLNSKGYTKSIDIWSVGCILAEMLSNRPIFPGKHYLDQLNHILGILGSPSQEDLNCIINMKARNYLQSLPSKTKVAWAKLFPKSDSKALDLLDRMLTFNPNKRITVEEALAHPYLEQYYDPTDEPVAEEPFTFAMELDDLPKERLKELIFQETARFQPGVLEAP
456 kinases (of these 395 non-mutant kinases) (Homo sapiens, UniProt P06241), sequence (P06241 2-537 limits assumed, change not shown): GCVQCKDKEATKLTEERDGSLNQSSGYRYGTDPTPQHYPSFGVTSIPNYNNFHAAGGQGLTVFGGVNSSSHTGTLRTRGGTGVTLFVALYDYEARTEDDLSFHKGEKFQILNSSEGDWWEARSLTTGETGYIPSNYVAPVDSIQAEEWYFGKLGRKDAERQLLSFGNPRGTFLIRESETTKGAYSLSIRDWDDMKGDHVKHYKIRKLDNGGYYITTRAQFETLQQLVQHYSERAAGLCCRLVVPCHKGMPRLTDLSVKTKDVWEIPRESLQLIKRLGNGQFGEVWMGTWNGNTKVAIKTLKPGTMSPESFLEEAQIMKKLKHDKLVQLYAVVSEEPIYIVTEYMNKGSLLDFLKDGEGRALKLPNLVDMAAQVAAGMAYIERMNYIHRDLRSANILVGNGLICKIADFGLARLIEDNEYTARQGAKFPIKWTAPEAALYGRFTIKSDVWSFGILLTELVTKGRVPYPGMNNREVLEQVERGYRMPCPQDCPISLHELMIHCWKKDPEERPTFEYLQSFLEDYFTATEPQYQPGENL
456 kinases (of these 395 non-mutant kinases) (Homo sapiens, UniProt P21860), sequence (P21860 20-1342 limits assumed, change not shown): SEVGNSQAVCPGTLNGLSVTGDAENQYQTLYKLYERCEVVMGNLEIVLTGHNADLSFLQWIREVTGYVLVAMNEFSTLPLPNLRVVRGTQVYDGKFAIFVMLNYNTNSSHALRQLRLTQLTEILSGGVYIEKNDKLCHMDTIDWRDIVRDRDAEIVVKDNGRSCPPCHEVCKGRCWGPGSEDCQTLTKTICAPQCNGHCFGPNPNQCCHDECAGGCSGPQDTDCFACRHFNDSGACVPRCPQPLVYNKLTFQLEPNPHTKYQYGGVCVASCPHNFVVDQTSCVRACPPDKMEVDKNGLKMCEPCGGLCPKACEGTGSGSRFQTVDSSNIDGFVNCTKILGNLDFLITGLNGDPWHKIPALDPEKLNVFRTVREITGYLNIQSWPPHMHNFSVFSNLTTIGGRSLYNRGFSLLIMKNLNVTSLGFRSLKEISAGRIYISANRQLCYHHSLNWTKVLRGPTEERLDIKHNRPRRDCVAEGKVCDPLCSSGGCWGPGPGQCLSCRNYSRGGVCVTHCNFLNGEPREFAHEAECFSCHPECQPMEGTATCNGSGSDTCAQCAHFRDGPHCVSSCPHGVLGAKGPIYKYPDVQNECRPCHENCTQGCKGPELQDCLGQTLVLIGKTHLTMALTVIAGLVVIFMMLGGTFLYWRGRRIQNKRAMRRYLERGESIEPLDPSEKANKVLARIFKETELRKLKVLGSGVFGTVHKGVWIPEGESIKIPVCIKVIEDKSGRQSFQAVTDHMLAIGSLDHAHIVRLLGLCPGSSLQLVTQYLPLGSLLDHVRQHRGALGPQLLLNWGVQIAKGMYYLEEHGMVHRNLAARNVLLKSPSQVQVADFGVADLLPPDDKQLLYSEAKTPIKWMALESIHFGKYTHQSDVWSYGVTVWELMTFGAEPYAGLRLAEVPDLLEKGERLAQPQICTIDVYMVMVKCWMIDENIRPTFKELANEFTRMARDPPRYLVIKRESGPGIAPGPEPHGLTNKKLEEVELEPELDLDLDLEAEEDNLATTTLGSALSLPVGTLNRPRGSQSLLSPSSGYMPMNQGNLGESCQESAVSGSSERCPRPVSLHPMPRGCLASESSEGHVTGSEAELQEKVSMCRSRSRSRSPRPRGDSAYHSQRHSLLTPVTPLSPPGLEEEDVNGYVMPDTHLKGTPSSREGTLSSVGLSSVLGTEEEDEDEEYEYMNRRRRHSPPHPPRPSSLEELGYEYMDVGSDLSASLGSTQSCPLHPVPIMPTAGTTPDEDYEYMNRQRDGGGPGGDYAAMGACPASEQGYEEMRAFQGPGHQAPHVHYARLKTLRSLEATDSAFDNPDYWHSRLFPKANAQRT
456 kinases (of these 395 non-mutant kinases) (Homo sapiens, UniProt Q16512), sequence (Q16512 2-942 limits assumed, stated change not applied): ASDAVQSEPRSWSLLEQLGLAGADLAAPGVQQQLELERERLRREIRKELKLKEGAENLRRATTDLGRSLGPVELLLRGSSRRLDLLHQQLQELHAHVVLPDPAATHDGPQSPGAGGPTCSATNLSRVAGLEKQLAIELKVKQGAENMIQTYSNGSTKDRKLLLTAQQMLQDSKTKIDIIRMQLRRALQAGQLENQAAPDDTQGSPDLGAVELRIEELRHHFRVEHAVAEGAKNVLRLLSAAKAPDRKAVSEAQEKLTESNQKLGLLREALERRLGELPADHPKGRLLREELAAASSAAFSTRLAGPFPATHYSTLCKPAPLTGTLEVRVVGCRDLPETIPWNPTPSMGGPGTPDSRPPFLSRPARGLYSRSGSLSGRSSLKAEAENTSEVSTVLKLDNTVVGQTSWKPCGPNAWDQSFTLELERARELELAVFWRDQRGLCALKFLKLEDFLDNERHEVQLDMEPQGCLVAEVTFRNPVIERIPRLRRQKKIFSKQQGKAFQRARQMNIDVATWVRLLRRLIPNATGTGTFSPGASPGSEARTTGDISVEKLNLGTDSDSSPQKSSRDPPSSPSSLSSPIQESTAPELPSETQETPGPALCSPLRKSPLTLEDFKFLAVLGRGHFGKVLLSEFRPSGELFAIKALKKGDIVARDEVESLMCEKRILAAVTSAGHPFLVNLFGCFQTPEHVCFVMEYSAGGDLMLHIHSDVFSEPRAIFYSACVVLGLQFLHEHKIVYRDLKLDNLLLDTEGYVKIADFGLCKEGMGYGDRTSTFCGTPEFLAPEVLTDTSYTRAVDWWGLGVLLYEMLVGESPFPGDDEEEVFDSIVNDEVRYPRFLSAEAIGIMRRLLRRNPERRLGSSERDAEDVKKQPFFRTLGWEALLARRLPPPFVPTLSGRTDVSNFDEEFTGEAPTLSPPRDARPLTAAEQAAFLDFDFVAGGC
456 kinases (of these 395 non-mutant kinases) (Homo sapiens, UniProt P09769), sequence (P09769 2-529 limits assumed, change not shown): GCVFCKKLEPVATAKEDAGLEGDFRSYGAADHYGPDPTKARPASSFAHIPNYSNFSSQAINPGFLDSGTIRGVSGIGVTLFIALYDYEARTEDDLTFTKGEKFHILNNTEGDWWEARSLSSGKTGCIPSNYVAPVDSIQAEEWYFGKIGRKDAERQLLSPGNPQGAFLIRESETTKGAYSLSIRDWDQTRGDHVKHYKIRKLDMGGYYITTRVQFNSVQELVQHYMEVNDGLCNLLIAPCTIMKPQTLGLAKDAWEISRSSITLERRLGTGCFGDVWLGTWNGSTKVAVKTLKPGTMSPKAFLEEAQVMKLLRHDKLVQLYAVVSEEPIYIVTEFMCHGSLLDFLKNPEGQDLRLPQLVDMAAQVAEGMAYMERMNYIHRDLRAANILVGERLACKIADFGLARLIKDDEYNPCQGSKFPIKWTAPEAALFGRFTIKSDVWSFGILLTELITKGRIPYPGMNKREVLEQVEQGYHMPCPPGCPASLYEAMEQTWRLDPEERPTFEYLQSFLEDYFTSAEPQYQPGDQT
456 kinases (of these 395 non-mutant kinases) (Homo sapiens, UniProt P45985), sequence (P45985 2-399 limits assumed, stated change not applied): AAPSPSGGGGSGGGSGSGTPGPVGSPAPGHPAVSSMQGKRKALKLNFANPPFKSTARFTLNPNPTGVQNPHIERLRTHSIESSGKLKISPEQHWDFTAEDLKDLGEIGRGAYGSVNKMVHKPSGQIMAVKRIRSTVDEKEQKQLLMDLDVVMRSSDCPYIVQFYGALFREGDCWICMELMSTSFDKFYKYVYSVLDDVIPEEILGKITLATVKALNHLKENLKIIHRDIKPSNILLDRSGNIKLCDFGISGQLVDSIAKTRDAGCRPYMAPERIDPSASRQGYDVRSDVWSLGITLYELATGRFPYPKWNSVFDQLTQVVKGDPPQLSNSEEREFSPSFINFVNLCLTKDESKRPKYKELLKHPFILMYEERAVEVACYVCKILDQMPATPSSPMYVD
456 kinases (of these 395 non-mutant kinases) (Homo sapiens, UniProt P53350), sequence (P53350 2-603 limits assumed, change not shown): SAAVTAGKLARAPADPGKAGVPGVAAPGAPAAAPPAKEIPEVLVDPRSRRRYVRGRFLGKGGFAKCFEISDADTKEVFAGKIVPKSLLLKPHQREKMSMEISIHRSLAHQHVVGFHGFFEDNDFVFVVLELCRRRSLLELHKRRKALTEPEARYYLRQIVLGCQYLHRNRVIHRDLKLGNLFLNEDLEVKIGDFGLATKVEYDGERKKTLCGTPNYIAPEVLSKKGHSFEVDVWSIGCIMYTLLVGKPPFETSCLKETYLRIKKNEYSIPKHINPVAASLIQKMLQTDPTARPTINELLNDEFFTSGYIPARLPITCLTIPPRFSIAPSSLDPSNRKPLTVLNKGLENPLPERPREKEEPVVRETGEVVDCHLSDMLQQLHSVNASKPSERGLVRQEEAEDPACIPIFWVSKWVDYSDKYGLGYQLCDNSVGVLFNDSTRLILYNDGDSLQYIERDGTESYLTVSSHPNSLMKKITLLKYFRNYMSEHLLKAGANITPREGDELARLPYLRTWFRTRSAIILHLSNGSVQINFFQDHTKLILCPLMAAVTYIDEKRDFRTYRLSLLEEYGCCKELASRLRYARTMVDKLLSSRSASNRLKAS

CCc1ccccc1NC(=O)c1c(C)nsc1Nc1cnc2cc(F)ccc2n1 [Example 20, N-(2-Ethylphenyl)-5-[(6-fluoroquinoxalin-2-yl)amino]-3-methyl-1,2-thiazole-4-carboxamide]
% Ctrl @ 10 μM [1]: 100 % Ctrl
% Ctrl @ 10 μM [2]: 100 % Ctrl
% Ctrl @ 10 μM ([3]; ABL1(T315I)-nonphosphorylated): 100 % Ctrl
% Ctrl @ 10 μM ([3]; ABL1(T315I)-phosphorylated): 87 % Ctrl
% Ctrl @ 10 μM [4]: 100 % Ctrl
% Ctrl @ 10 μM [5]: 73 % Ctrl
% Ctrl @ 10 μM [6]: 96 % Ctrl
% Ctrl @ 10 μM ([7]; ABL1(F317I)-nonphosphorylated): 100 % Ctrl
% Ctrl @ 10 μM ([7]; ABL1(F317I)-phosphorylated): 86 % Ctrl
% Ctrl @ 10 μM [8]: 100 % Ctrl
% Ctrl @ 10 μM [9]: 89 % Ctrl
% Ctrl @ 10 μM [10]: 96 % Ctrl
% Ctrl @ 10 μM [11]: 100 % Ctrl
% Ctrl @ 10 μM [12]: 96 % Ctrl
% Ctrl @ 10 μM [13]: 94 % Ctrl
% Ctrl @ 10 μM [14]: 84 % Ctrl
% Ctrl @ 10 μM [15]: 61 % Ctrl
% Ctrl @ 10 μM [16]: 100 % Ctrl
% Ctrl @ 10 μM [17]: 100 % Ctrl
% Ctrl @ 10 μM [18]: 83 % Ctrl
% Ctrl @ 10 μM [19]: 66 % Ctrl
% Ctrl @ 10 μM [20]: 100 % Ctrl
% Ctrl @ 10 μM [21]: 99 % Ctrl
% Ctrl @ 10 μM [22]: 80 % Ctrl
% Ctrl @ 10 μM [23]: 57 % Ctrl
% Ctrl @ 10 μM [24]: 100 % Ctrl
% Ctrl @ 10 μM [25]: 100 % Ctrl
% Ctrl @ 10 μM [26]: 87 % Ctrl
% Ctrl @ 10 μM [27]: 90 % Ctrl
% Ctrl @ 10 μM [28]: 100 % Ctrl
% Ctrl @ 10 μM [29]: 67 % Ctrl
% Ctrl @ 10 μM [30]: 66 % Ctrl
% Ctrl @ 10 μM [31]: 71 % Ctrl
